Source: patent US20060057732A1, “Methods in the diagnosis of pulmonary embolism” (Aerocrine AB, priority 2004, published 2006)

Tests used:
[1] = Thrombin infusion as pro-thrombotic challenge; type: in vivo, rabbit; details: thrombin 10-250 Units; when cardiovascular parameters indicated a thrombotic event
Procedure: Another experiment was performed with infusion of thrombin (10-250 Units) as pro-thrombotic challenge. Also in this experiment, an increase in exhaled NO was obtained when measurement of cardiovascular parameters indicated an activation of a thrombotic event.

NO-production = test: L-NAME pre-treatment (inhibited NO-production) before and during muscle emboli challenge in anaesthetised rabbits (Group 2); type: in vivo
Procedure: The experiments were approved by the local animal ethics committee. Male white New Zealand rabbits (n=20, body weight 2.456±0.086 kg) were anaesthetised via an ear vein with sodium pentobarbital, 6 mg ml^−1 in normal saline, 40-60 mg kg^−1. The animals were placed in supine position and tracheotomised just below the cricoid cartilage to allow mechanical ventilation using a tracheal cannula with an outer diameter of 5 mm. The animals were ventilated by a Harvard Apparatus rodent ventilator (model 683, Harvard Apparatus, South Natick, Mass., USA). The ventilator was supplied with NO-free air using a charcoal filter (110×11 cm). Ventilation rate was 40 min^−1 at constant volume where the tidal volume was initially adjusted to keep the end-tidal CO2 at 4.5-5.3% as determined by a ventilatory monitor (Oscar-Oxy, Datex, Helsinki, Finland) sampling gas (150 ml min^−1, 15-20% of minute ventilation) from one of two side-arms connected to the tracheal cannula, and using a de-humidifying tube. The minute ventilation was 0.64-0.96 l min^−1. To the other side arm a pressure transducer (Statham, Hato Rey, Puerto Rico) was connected thus monitoring the insufflation pressure. The gas from the ventilator outlet was led through a switching valve to either of two beakers creating a positive end-expiratory pressure (PEEP) of 1-2 cmH2O or 4-5 cmH2O. During the experiment the gas flow was altered between the lower PEEP (9 min) and the higher PEEP (1 min) with an interval of totally 10 min. A continuous infusion containing glucose (24.3 g l^−1), dextran 70 (26.5 g l^−1), NaHCO3 (6,2 g l^−1), sodium pentobarbital (4.1 g l^−1) and pancuronium bromide ([…]) was administrated at a rate of 5 ml kg^−1 h^−1 via the same ear vein by means of a Terumo STC-521 syringe pump (Terumo Corp., Tokyo, Japan). A heparinised catheter was inserted in the left common carotid artery for blood pressure and heart rate recordings (pressure transducer, Staham, Hato Rey, Puerto Rico), and arterial blood sampling. Another catheter was inserted in the right jugular vein for drug and muscle emboli administration. Body temperature was maintained at 37-38.5° C. by means of a heating pad connected to a thermostat. The muscles from the anterior compartment of the right lower hind limb were resected and placed in normal saline. Hereafter the animals were allowed a 30-60 min intervention-free period to obtain stable circulatory conditions and stable concentrations of expired NO.
NO concentration, in mixed exhaled gas, was continuously measured by means of a chemiluminescence based system (NIOX®, AEROCRINE AB, Solna, Sweden) sampling at 100 ml min^−1 at the end of a mixing chamber connected to the ventilator exhaust. The full mixing of expired air thus measured on was intermittently checked by monitor CO2 concentration in the same chamber. In a few experiments, gas for NO measurement was sampled from the trachea at the same point as for tidal CO2 measurements, thus yielding breath by breath NO concentrations. Calibration was done using certified NO standard gas in nitrogen (AGA Specialgas, Lidingö, Sweden).
The resected muscle tissue was cleared from all visible connective tissue and then homogenized and dissolved in normal saline to a concentration of 0,1 g muscle ml^−1. 50 IE heparin was added to the mixture. The homogenate was filtered through a filter (500 μm) to prevent clotting in the three way stop-cock.
The animals were divided into two groups; 1) one group receiving a high dose (58-120 mg kg^−1) muscle homogenate and 2) a second group receiving the nitric oxide inhibitor L-NAME (30 mg kg^−1) 40 min before challenge with lower doses (30 to 7.5 mg kg^−1) muscle homogenate, since initial pilot experiments indicated a marked enhancement of emboli effects after L-NAME pre-treatment. […]

[2] = Group 2, during L-NAME pre-treatment, time -5 min, before challenge

Molecule	exhaled NO change [1]	PaCO2 (NO-production; [2]) [kPa]	PaO2 (NO-production; [2]) [kPa]	pH (arterial) (NO-production; [2])	ETCO2 after L-NAME infusion (NO-production; L-NAME 30 mg kg-1, before muscle emboli challenge (time=-5), before L-NAME 4.9±0.1) [kPa]	FENO after L-NAME infusion (NO-production; L-NAME 30 mg kg-1, before muscle emboli challenge (time=-5), before L-NAME 20.9±1.0 ppb, n=4) [ppb]	MAP after L-NAME infusion (NO-production; L-NAME 30 mg kg-1, before muscle emboli challenge (time=-5), before L-NAME 105±6) [cmH2O]	HR after L-NAME infusion (NO-production; L-NAME 30 mg kg-1, before muscle emboli challenge (time=-5), before L-NAME 286±11) [beats min^-1]	ETCO2, lowest observed value (NO-production; L-NAME 30 mg kg-1 pre-treatment + muscle emboli infusion, at 4 min, n=4 incl. dead animals) [kPa]	MAP, first drop (NO-production; L-NAME 30 mg kg-1 pre-treatment + muscle emboli infusion, at 12 min) [cmH2O]	MAP, lowest observed value (NO-production; L-NAME 30 mg kg-1 pre-treatment + muscle emboli infusion, at 60 min) [cmH2O]	HR change (NO-production; L-NAME 30 mg kg-1 pre-treatment + muscle emboli infusion, not significant)	Survival after muscle emboli infusion (NO-production; L-NAME 30 mg kg-1 pre-treatment, 7.5 to 30 mg kg-1 homogenate, four rabbits)
thrombin	increase	–	–	–	–	–	–	–	–	–	–	–	–
COC(=O)[C@@H](N)CCCNC(=N)N[N+](=O)[O-] [L-NAME, N^G-nitro-L-arginine methyl ester]	–	4.3 ± 0.2	8.6 ± 0.6	7.50 ± 0.02	4.8±0.2	0	121±8.2	314±34	2.6±1.1	52.4±25.5	44.4±29.6	decreased	two animals survived 60 min
